In US6521659B2, “Compositions containing a substituted indolealkanoic acid and an angiotensin converting enzyme inhibitor” (Institute for Pharmaceutical Discovery, LLC, priority 2000, dated 2003):
Like-named read-outs stand apart in the source and are kept apart here.

Key:
[1] = test system: STZ treated diabetic minipigs; assay: Wound healing in STZ treated diabetic minipigs; format: in vivo, minipig; conditions: STZ diabetic minipigs with wounds, compared with untreated control STZ diabetic minipigs
Protocol: STZ treated diabetic minipigs having various wounds are administered the compound of Example 3. These animals are compared with control STZ diabetic minipigs also having wounds but that are not treated with the compound. […] Accordingly, the compounds of the invention are capable of promoting wound healing in diabetic mammals.

[2] = test system: streptozotocin-induced diabetic rats; assay: Serum/plasma triglyceride levels in streptozotocin-induced diabetic rats; format: in vivo, rat; conditions: 10 mg/kg/day
Protocol: Tests are conducted to determine the effect of compounds on serum triglyceride levels in streptozotocin-induced diabetic rats.
Control animals receive citrate buffer.
Two hours after STZ injection, food is returned.
The nondiabetic and diabetic control groups are administered vehicle.

rat aortic ring = assay: Rat aortic ring assay (anti-angiogenic activity); format: cell-based
Protocol: Final concentration of DMSO in all wells is 1%.
Statistical analysis conducted with Kruskal-Wallis Test and Dunns multiple comparisons

diabetic (db/db) mice = assay: Blood glucose lowering in diabetic (db/db) mice; format: in vivo, mouse; conditions: for Blood glucose: n = 12
Protocol: The mice are obese, extremely hyperglycemic and also hyperinsulinemic.
Male db/db mice (8 weeks old) were obtained from Jackson Laboratories and were allowed to acclimate for 1 week before the experiment commenced. A sample of blood was collected from the tail after which plasma glucose was isolated by centrifigation and the glucose concentration was measured in the plasma enzymatically on the COBAS automated clinical analyzer equipped with a glucose kit that utilized hexokinas to quantitate the amount of glucose in a sample (Roche Diagnostic Systems, kit #47382). Mice with the lowest plasma glucose values were removed from the study and the remaining mice were randomized according to their individual plasma glucose values into 3 treatment groups (n=12 per group), control untreated db/db mice, 100 mg/kg/d compound treated db/db mice and 300 mg/kg/d compound treated db/db mice.
Treatment with the compound was carried out for 4 weeks during which time blood glucose levels were measured weekly from the tail using the One Touch II blood glucose meter (Lifescan, Inc). The blood glucose values of mice in the compound treated groups was compared to the blood glucose values of mice from the control untreated group by an analysis of variance followed by Dunett's Comparison Test (one-tailed).

With O=C(O)Cn1cc(Cc2nc3c(F)c(F)cc(F)c3s2)c2ccccc21 [Example 3, 3-(4,5,7-Trifluorobenzothiazol-2-yl)methyl-indole-N-acetic Acid] the “degree of wound healing” value [1] was “significant increase in the degree of wound healing”, the “Triglyceride lowering compared to diabetic” value ([2]; STZ diabetic rats, 10 mg/kg/d by gavage) was 68% and the Plasma triglycerides ([2]; po, 4 h) was 149 ± 29 mg/dL. The “Linear Microvascular Growth” value (rat aortic ring) was 1.97 ± 0.66, n = 5 mm, the “Linear Microvascular Growth” value (rat aortic ring; 50 µM) was 2.31 ± 0.71, n = 5 mm and the “Linear Microvascular Growth” value (rat aortic ring; Prevention (Days 1-6), 50 micromolar, mean ± SD, n = 6) was 1.46 ± 0.48, n = 6 mm. It also gave a Blood glucose (diabetic (db/db) mice; 100 mg/kg/d in diet, Week 0, mean ± SD) of 323 ± 79 mg/dL, a Blood glucose (diabetic (db/db) mice; 100 mg/kg/d in diet, Week 2, mean ± SD) of 284 ± 75 mg/dL and a Blood glucose (diabetic (db/db) mice; 100 mg/kg/d in diet, Week 3, mean ± SD) of 258 ± 60 mg/dL. For the same compound, the Blood glucose (diabetic (db/db) mice; 100 mg/kg/d in diet, Week 4, mean ± SD) was 303 ± 79 mg/dL, the “mean percent change in glucose with drug treatment (lowering)” value (diabetic (db/db) mice; 100 mg/kg/d, after four weeks) was 12% and the Blood glucose (diabetic (db/db) mice; 300 mg/kg/d in diet, Week 0, mean ± SD) was 313 ± 52 mg/dL. For the same compound, the Blood glucose (diabetic (db/db) mice; 300 mg/kg/d in diet, Week 2, mean ± SD) was 240 ± 85 mg/dL, the Blood glucose (diabetic (db/db) mice; 300 mg/kg/d in diet, Week 3, mean ± SD) was 197 ± 77 mg/dL and the Blood glucose (diabetic (db/db) mice; 300 mg/kg/d in diet, Week 4, mean ± SD) was 207 ± 77 mg/dL. For the same compound, the “mean percent change in glucose with drug treatment (lowering of blood glucose)” value (diabetic (db/db) mice; 300 mg/kg/d, after four weeks) was 40%.
